Where a name gives a salt, the structure may show the parent alone.
Biological target: T1, α7 nAChR (Rattus norvegicus, UniProt Q05941)
T1 construct: the brains (whole brain minus cerebellum) are dissected quickly, weighed and homogenized; from tissue; host or cells: rat brain (whole brain minus cerebellum) membranes
Assay: [3H]-MLA competition binding assay in rat brain membranes
Conditions: inhibition of [3H]-MLA binding (3.0 to 4.0 nM), rat brain homogenate (whole brain minus cerebellum), 1 hr at 25° C, Cheng-Prusoff
Procedure: Materials and Methods for Identifying Binding Constants
Membrane Preparation. Male Sprague-Dawley rats (300-350 g) are sacrificed by decapitation and the brains (whole brain minus cerebellum) are dissected quickly, weighed and homogenized in 9 volumes/g wet weight of ice-cold 0.32M sucrose using a rotating pestle on setting 50 (10 up and down strokes). The homogenate is centrifuged at 1,000×g for 10 minutes at 4° C. The supernatant is collected and centrifuged at 20,000×g for 20 minutes at 4° C. The resulting pellet is resuspended to a protein concentration of 1-8 mg/mL. Aliquots of 5 mL homogenate are frozen at −80° C. until needed for the assay. On the day of the assay, aliquots are thawed at room temperature and diluted with Kreb's −20 mM Hepes buffer pH 7.0 (at room temperature) containing 4.16 mM NaHCO3, 0.44 mM KH2PO4, 127 mM NaCl, 5.36 mM KCl, 1.26 mM CaCl2, and 0.98 mM MgCl2, so that 25-150 μg protein are added per test tube. Proteins are determined by the Bradford method (Bradford, M. M., Anal. Biochem., 72, 248-254, 1976) using bovine serum albumin as the standard.
Binding Assay. For saturation studies, 0.4 mL homogenate are added to test tubes containing buffer and various concentrations of radioligand, and are incubated in a final volume of 0.5 mL for 1 hr at 25° C. Nonspecific binding was determined in tissues incubated in parallel in the presence of 0.05 ml MLA for a final concentration of 1 μM MLA, added before the radioligand. In competition studies, drugs are added in increasing concentrations to the test tubes before addition of 0.05 ml [^3H]-MLA for a final concentration of 3.0 to 4.0 nM [^3H]-MLA. The incubations are terminated by rapid vacuum filtration through Whatman GF/B glass filter paper mounted on a 48 well Brandel cell harvester. Filters are pre-soaked in 50 mM Tris HCl pH 7.0-0.05% polyethylenimine. The filters are rapidly washed two times with 5 mL aliquots of cold 0.9% saline and then counted for radioactivity by liquid scintillation spectrometry.
Data Analysis. In competition binding studies, the inhibition constant (Ki) was calculated from the concentration dependent inhibition of [^3H]-MLA binding obtained from non-linear regression fitting program according to the Cheng-Prusoff equation (Cheng, Y. C. and Prussoff, W. H., Biochem. Pharmacol., 22, pp. 3099-3108, 1973). Hill coefficients were obtained using non-linear regression (GraphPad Prism sigmoidal dose-response with variable slope).

T1 sequence (Q05941 23-502): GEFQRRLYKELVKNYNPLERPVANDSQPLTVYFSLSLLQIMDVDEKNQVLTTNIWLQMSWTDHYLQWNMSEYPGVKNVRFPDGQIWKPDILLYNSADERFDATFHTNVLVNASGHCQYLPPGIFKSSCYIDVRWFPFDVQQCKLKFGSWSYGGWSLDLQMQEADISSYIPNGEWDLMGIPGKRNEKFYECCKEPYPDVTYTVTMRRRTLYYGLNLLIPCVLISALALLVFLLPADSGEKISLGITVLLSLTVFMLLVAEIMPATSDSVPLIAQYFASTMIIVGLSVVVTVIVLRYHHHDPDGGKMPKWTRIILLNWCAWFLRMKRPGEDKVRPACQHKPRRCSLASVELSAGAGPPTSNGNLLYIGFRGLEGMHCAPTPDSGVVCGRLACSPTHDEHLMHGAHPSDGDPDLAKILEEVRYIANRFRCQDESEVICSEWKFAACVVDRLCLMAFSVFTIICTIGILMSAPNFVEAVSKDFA

Structure (SMILES): O=C(N[C@H]1CN2CCC1CC2)c1ccc2ocnc2c1 [Example 3, N-((3R)1-azabicyclo[2.2.2]oct-3-yl)-1,3-benzoxazole-5-carboxamide.fumarate]
- Ki: 32 nM

Structure (SMILES): Cc1nc2cc(C(=O)N[C@H]3CN4CCC3CC4)ccc2o1 [Example 4, N-((3R)1-azabicyclo[2.2.2]oct-3-yl)-2-methyl-1,3-benzoxazole-5-carboxamide.fumarate]
- Ki: 305 nM

Structure (SMILES): O=C(N[C@H]1CN2CCC1CC2)c1ccc2ncsc2c1 [Example 5, N-((3R)1-azabicyclo[2.2.2]oct-3-yl)-1,3-benzothiazole-6-carboxamide.fumarate]
- Ki: 30 nM

Structure (SMILES): O=C(N[C@H]1CN2CCC1CC2)c1ccc2c(c1)CCC2 [Example 6, N-((3R)1-azabicyclo[2.2.2]oct-3-yl)indane-5-carboxamide.fumarate]
- Ki: 110 nM

Structure (SMILES): O=C(N[C@H]1CN2CCC1CC2)c1ccc2c(c1)OCO2 [Example 7, N-((3R)-1-azabicyclo[2.2.2]oct-3-yl)-1,3-benzodioxole-5-carboxamide, 4-methylbenzenesulfonate]
- Ki: 24 nM

Structure (SMILES): C[C@H]1[C@H](NC(=O)c2ccc3ncsc3c2)C2CCN1CC2 [Example 11, N-[(2S,3R)-2-methyl-1-azabicyclo[2.2.2]oct-3-yl]-1,3-benzothiazole-6-carboxamide hydrochloride]
- Ki: 92 nM

Structure (SMILES): C[C@H]1[C@H](NC(=O)c2nc3ccccc3s2)C2CCN1CC2 [Example 1005, N-[(2S,3R)-2-methyl-1-azabicyclo[2.2.2]oct-3-yl]-1,3-benzothiazole-2-carboxamide hydrochloride]
- Ki: 73 nM
